This note sets out measurements from US20200367506A1, “RARE EARTH DEPENDENT PLANT PROBIOTIC COMPOSITIONS AND METHODS OF USE” (BOARD OF TRUSTEES OF MICHIGAN STATE UNIVERSITY, priority 2017, published 2020).

Test [1] has as its system M. extorquens mxaF mutant strain. Nature of the test: REE/La^3+-dependent methanol growth of mxaF mutant strain. The class given is cell-based. The text has this: FIGS. 5A-5B show REE-dependent methylotrophy.
There is a direct link between REEs commonly used in fertilizers, such as La, Ce^3+, Pr^3+, and Nd^3+, and growth of M. extorquens using methanol as carbon source (FIG. 5A). […] Alternatively, it is possible that the remaining lanthanides are not transported into the cell. Detailed biochemical analyses are required to distinguish between these two possibilities.
The concentrations of exogenous La^3+ that would support La^3+-dependent methanol growth were assessed using methanol medium supplemented with La^3+ concentrations ranging from 0-20 μM (FIG. 5B). The mxaF mutant strain was used to eliminate any contribution by the Ca^2+-dependent methanol dehydrogenase MxaFI.

Another test deals with M. extorquens. Briefly: Illumina-based transcriptome analysis (RNA-seq) of cells grown with and without REE. The class given is cell-based. The settings on record: La^3+ vs without REE. Here is the method:
To identify mechanisms by which M. extorquens can sense and acquire REE, as well as to support REE-dependent methanol growth, Illumina-based transcriptome analyses (RNA-seq) was performed. Comparison of cells grown in liquid culture with and without REE addition allowed us to identify changes that may be relevant in planta.
It is intriguing to speculate that the reason why Fdh4 activity has never been detected is because it may require REEs. Frc12 and Oxr are enzymes of the oxalyl-CoA pathway (OXC). This pathway is known to produce glyoxylate when M. extorquens is grown with oxalate as a carbon source.

Molecules are shown by their SMILES.

On to `[La+3]` [La^3+, lanthanum], for which the “Final OD600” value in test [1] (1 μM La^3+) is 1.6. In addition, the “La^3+ concentration resulting in maximal growth rate” value in test [1] (methanol medium) was determined as 1 µM. The “Lowest La^3+ concentration at which La^3+-dependent methanol growth was observed” value in test [1] (poor growth) was 2.5 nM. Further, in the test with M. extorquens, the “Upregulation of Zn-containing alcohol dehydrogenase Zn-ADH” value amounted to 4.8 fold, the “Upregulation of an ABC transporter” value came to 6.3 fold, the “Upregulation of formate dehydrogenase Fdh4” value came to 4 fold and the “Upregulation of formyl-CoA transferase Frc12” value is given as 3 fold. Further, in the test on M. extorquens, the “Upregulation of oxalyl-CoA (Oxr)” value stood at 2.5 fold, the “Upregulation of putative alcohol dehydrogenase quinoprotein ExaF” value is reported as 3.4 fold and the “Upregulation of the PQQ synthesis pathway” value is 10 fold. The “Upregulation of methanol dehydrogenase genes XoxF1 and XoxF2” value in the test with M. extorquens (methanol growth) amounted to 10 fold.
